Values of other authors as cited in patent US20190069585A1, “Compositions of micronutrients and phytochemicals for optimal human health” (priority 2017, published 2019).

Conditions: consumed orally by humans

N[C@@H](CCC(=O)N[C@@H](CS)C(=O)NCC(=O)O)C(=O)O [glutathione]
plasma levels of glutathione: do not significantly increase
